# Laboratory results reported in US20130217694A1, “METHOD OF REDUCING THE SEVERITY OF INFLAMMATORY DERMATOLOGICAL CONDITIONS” (Allergan, Inc.., priority 2003, published 2013).
# How the values were obtained:
# human α-2A receptor = target: T1, human α-2A receptor (Homo sapiens, UniProt P08913); details: percent efficacy relative to brimonidine
# T1 sequence (P08913 1-465): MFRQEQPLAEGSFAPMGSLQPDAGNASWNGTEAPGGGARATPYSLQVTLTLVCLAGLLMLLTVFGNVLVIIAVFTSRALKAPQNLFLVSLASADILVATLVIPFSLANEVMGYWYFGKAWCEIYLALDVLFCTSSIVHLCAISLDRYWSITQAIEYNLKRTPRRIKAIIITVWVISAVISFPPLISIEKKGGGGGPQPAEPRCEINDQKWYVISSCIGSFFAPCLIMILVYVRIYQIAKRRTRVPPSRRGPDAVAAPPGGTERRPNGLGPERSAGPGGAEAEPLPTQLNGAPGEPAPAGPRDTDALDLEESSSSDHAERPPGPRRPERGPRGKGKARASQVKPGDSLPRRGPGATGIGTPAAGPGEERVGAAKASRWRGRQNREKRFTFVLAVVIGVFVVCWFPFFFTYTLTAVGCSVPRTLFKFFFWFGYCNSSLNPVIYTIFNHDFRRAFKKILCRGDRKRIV
# Description: The human α-2A and α-2C receptor supernatants were added, in varying amounts, to naive PC12 cells, which were then incubated for 48 hours. The transduced cell populations were replated at a lower density and grown in media containing 100 ug/ml puromycin.
# Intracellular cAMP measurement was performed as follows. PC12 cells stably expressing the human α-2A or human α-2C adrenergic receptors were plated in 96-well poly-D-lysine coated plates at a density of 30,000 cells per well in 100 μl DMEM supplemented with 10% horse serum, 5% heat inactivated fetal bovine serum, 1% antibiotic-antimycotic and 100 μg/ml puromycin. Cells were grown overnight at 37° C. and 5% CO2. Cells were dosed by adding an equal volume of media containing IBMX (to a final concentration of 1 mM), forskolin (to a final concentration of 10 μM) and the appropriate drug dilution (to a final concentration of between 10^−5 M and 10^−12 M). After a 10 minute incubation, the media was aspirated and the cells lysed with 200 μl lysis buffer (Amersham Biosciences; Piscataway, N.J.). Plates were stored at −20° C. for up to 24 hours prior to assay. Intracellular cAMP was determined using the Biotrak cAMP enzyme immunoassay system (Amersham Biosciences) according to the manufacturer's instructions. Plates were read on a plate reader at 450 nm.
# [1] = target: T2, bovine α-1A adrenergic receptor (Bos taurus, UniProt P18130); test: Intracellular Ca+2 response in HEK293 cells expressing bovine α-1A receptor; type: cell-based; details: for bovine α1A % E: percent efficacy relative to phenylephrine; for agonist activity at the α-1A receptor: result in words
# T2 sequence (P18130 1-466): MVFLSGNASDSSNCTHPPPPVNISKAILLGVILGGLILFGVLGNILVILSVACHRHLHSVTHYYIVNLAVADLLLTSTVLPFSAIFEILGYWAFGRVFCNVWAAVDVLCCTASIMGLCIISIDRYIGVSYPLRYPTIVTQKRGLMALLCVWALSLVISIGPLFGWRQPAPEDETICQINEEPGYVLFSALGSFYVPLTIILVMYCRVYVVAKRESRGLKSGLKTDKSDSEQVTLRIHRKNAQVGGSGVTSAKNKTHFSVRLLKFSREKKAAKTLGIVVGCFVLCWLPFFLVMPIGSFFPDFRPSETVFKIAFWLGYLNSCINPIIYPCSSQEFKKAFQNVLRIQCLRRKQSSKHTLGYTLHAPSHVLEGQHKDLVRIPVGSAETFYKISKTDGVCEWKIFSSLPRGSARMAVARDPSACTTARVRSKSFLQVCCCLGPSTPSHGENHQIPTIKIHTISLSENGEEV
# Description: The bovine α-1A and hamster α-1B receptor supernatants were added, in varying amounts, to naive HEK293 cells, which were then incubated for 48 hours. The transduced cell populations were replated at a lower density and grown in media containing 0.25 ug/ml puromycin. […] Receptor density was measured in a prazosin radioligand binding assay.
# Intracellular Ca^+2 responses were measured as follows in HEK293 cells stably expressing either the bovine α-1A or hamster α-1B adrenergic receptor. Between 40,000 to 50,000 cells were plated per well in 96-well poly-D-lysine coated plates in 0.2 ml DMEM containing 10% heat-inactivated fetal calf serum, 1% antibiotic-antimycotic and 0.25 μg/ml puromycin one day prior to use. Cells were washed twice with HBSS supplemented with 10 mM HEPES, 2.0 mM CaCl2 and 2.5 mM probenicid, and subsequently incubated at 37° C. for 60 minutes with 4 μM Fluo-4 (Molecular Probes; Eugene, Oreg.). The extracellular dye was washed from the plates twice prior to placing the plates in the fluorometric imaging plate reader (FLIPR; Molecular Devices; Sunnyvale, Calif.). Ligands were diluted in HBSS and aliquoted into a 96-well microplate. Drugs were tested over the concentration range of 0.64 nM to 10,000 nM. Data for Ca^+2 responses were obtained in arbitrary fluorescence units.
# mice = details: intraperitoneal dosing, wildtype mice; result in words
# Description: The tactile hypersensitivity of 5-6 mice per group was scored every five minutes between 15 and 50 minutes following intraperitoneal dosing. […] In addition, the locomoter activity of 5-6 mice per group was measured in a five minute period 30 minutes following intraperitoneal dosing. The locomoter activity relative to vehicle-treated animals was expressed as a percentage; percentage sedation was calculated as 100% minus the percent locomoter activity.
SMILES,human α2A % E (human α-2A receptor) [%],bovine α1A % E [1] [%],agonist activity at the α-1A receptor [1],alleviation of sulprostone-induced tactile hypersensitivity in the absence of sedation (mice)
"Brc1c(NC2=NCCN2)ccc2nccnc12 [Brimonidine, 5-bromo-6-(2-imidazolin-2-ylamino)quinoxaline]",91,15,weak activity,alleviates sulprostone-induced tactile hypersensitivity in the absence of sedation
Clc1cccc(Cl)c1N=C1NCCN1 [Clonidine],94,62,partial agonists,
